Measurements published in patent US7439372B2, “Therapeutic compounds” (Allergan, Inc., priority 2006, dated 2008).

Key:
hIP = target: T1, hIP (Homo sapiens, UniProt P43119); experiment: FLIPR calcium signal, HEK-293(EBNA) cells expressing hIP; format: cell-based
T1 construct: expressed in transfected cells; host or cells: HEK-293(EBNA)
Procedure: HEK-293(EBNA) cells, stably expressing one type or subtype of recombinant human prostaglandin receptors (prostaglandin receptors expressed: hDP/Gqs5; hEP1; hEP2/Gqs5; hEP3A/Gqi5; hEP4/Gqs5; hFP; hIP; hTP), were cultured in 100 mm culture dishes in high-glucose DMEM medium containing 10% fetal bovine serum, 2 mM l-glutamine, 250 µg/ml geneticin (G418) and 200 μg/ml hygromycin B as selection markers, and 100 units/ml penicillin G, 100 µg/ml streptomycin and 0.25 μg/ml amphotericin B.
Cells were seeded at a density of 5×10^4 cells per well in Biocoat® Poly-D-lysine-coated black-wall, clear-bottom 96-well plates (Becton-Dickinson) and allowed to attach overnight in an incubator at 37° C. Cells were then washed two times with HBSS-HEPES buffer (Hanks Balanced Salt Solution without bicarbonate and phenol red, 20 mM HEPES, pH 7.4) using a Denley Cellwash plate washer (Labsystems). After 45 minutes of dye-loading in the dark, using the calcium-sensitive dye Fluo-4 […] at a final concentration of 2 μM, plates were washed four times with HBSS-HEPES buffer to remove excess dye leaving 100 μl in each well. Plates were re-equilibrated to 37° C. for a few minutes.
Cells were excited with an Argon laser at 488 nm, and emission was measured through a 510-570 nm bandwidth emission filter (FLIPR™, Molecular Devices, Sunnyvale, Calif.). Drug solution was added in a 50 µl volume to each well to give the desired final concentration. The peak increase in fluorescence intensity was recorded for each well. On each plate, four wells each served as negative (HBSS-HEPES buffer) and positive controls (standard agonists: BW245C (hDP); PGE2 (hEP1; hEP2/Gqs5; hEP3A/Gqi5; hEP4/Gqs5); PGF2α (hFP); carbacyclin (hIP); U-46619 (hTP), depending on receptor). The peak fluorescence change in each drug-containing well was then expressed relative to the controls.
Compounds were tested in a high-throughput (HTS) or concentration-response (CoRe) format. In the HTS format, forty-four compounds per plate were examined in duplicates at a concentration of 10^−5 M. To generate concentration-response curves, four compounds per plate were tested in duplicates in a concentration range between 10^−5 and 10^−11 M. The duplicate values were averaged. In either, HTS or CoRe format each compound was tested on at least 3 separate plates using cells from different passages to give an n≧3.

EP2 = EP2 (Homo sapiens, UniProt P43116); experiment: Competition binding, [3H]PGE2, HEK 293 cells stably expressing human EP2 receptors; parameters: expressed in transfected cells; host or cells: HEK 293; settings: [3H]PGE2 competition
Procedure: Competition binding experiments were performed in a medium containing Hank's balanced salt solution, Hepes 20 mM, pH 7.3, membranes (˜60 μg protein) or 2×10^5 cells from HEK 293 cells stably expressing human EP2 receptors, [^3H]PGE2 (10 nM) and various concentrations of test compounds in a total volume of 300 μl. Reaction mixtures were incubated at 23° C. for 60 min, and were filtered over Whatman GF/B filters under vacuum. Filters were washed three times with 5 ml ice-cold buffer containing 50 mM Tris/HCl (pH 7.3). Non-specific binding was estimated in the presence of excess unlabeled PGE2 (10 μM). Binding data fitted to the binding model for a single class of binding sites, using nonlinear regression analysis. IC50 values thus obtained were converted to Ki using the equation of Ki=(IC50/(1+[L]/KD) where [L] represents PGE2 concentration (10 nM) and KD the dissociation constant for [3H]PGE2 at human EP2 receptors (40 nM).
(§1) HEK-293 cells stably expressing the human or feline FP receptor, or EP1, EP2, or EP4 receptors were washed with TME buffer, scraped from the bottom of the flasks, and homogenized for 30 sec using a Brinkman PT 10/35 polytron. TME buffer was added to achieve a final 40 ml volume in the centrifuge tubes (the composition of TME is 100 mM TRIS base, 20 mM MgCl2, […]; 10N HCl is added to achieve a pH of 7.4).
(§2) The cell homogenate was centrifuged at 19000 r.p.m. for 20 min at 4° C. using a Beckman Ti-60 rotor. The resultant pellet was resuspended in TME buffer to give a final 1 mg/ml protein concentration, as determined by Biorad assay. Radioligand binding competition assays vs. [^3H-]17-phenyl PGF2α (5 nM) were performed in a 100 μl volume for 60 min. Binding reactions were started by adding plasma membrane fraction. The reaction was terminated by the addition of 4 ml ice-cold TRIS-HCl buffer and rapid filtration through glass fiber GF/B filters using a Brandel cell harvester. The filters were washed 3 times with ice-cold buffer and oven dried for one hour.
(§3) [^3H-]PGE2 (specific activity 180 Ci mmol) was used as the radioligand for EP receptors. [^3H]17-phenyl PGF2α was employed for FP receptor binding studies. Binding studies employing EP1, EP2, EP4 and FP receptors were performed in duplicate in at least three separate experiments. A 200 μl assay volume was used. Incubations were for 60 min at 25° C. and were terminated by the addition of 4 ml of ice-cold 50 mM TRIS-HCl, followed by rapid filtration through Whatman GF/B filters and three additional 4 ml washes in a cell harvester (Brandel). Competition studies were performed using a final concentration of 5 nM [^3H]-PGE2, or 5 nM [^3H] 17-phenyl PGF2α and non-specific binding determined with 10^−5M of unlabeled PGE2, or 17-phenyl PGF2α, according to receptor subtype studied.

EP4 receptors = target: T2, EP4 receptors (Homo sapiens, UniProt P35408); experiment: Radioligand binding, [3H]PGE2, HEK-293 cells stably expressing EP4 receptors; settings: [3H]PGE2 competition
T2 construct: expressed in transfected cells; host or cells: HEK-293
Procedure: as §1, §2, §3

T1 sequence (P43119 whole entry): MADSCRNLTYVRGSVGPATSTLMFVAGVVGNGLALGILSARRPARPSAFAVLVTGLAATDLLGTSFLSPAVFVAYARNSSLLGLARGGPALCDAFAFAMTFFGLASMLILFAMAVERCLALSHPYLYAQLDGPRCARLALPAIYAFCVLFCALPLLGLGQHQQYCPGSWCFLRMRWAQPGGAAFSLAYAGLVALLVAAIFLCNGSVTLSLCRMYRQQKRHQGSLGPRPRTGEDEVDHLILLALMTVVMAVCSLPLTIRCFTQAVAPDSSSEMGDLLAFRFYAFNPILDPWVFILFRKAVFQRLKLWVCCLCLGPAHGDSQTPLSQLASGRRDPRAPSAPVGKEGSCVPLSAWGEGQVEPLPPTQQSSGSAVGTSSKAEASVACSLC
T2 sequence (P35408 whole entry): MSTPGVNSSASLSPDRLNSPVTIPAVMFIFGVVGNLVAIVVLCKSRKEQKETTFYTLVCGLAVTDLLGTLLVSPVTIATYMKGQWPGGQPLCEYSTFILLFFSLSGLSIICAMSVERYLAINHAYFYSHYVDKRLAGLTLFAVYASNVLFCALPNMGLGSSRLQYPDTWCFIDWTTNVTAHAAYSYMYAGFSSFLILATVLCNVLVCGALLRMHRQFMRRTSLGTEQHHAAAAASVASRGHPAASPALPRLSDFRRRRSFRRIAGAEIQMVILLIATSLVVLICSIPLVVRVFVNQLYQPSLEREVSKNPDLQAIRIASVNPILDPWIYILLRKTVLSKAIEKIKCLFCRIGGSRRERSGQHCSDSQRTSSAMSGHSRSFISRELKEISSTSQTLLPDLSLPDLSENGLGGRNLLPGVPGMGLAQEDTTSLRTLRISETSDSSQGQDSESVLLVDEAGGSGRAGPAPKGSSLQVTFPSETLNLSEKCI
Chain of EP2 (P43116 whole entry): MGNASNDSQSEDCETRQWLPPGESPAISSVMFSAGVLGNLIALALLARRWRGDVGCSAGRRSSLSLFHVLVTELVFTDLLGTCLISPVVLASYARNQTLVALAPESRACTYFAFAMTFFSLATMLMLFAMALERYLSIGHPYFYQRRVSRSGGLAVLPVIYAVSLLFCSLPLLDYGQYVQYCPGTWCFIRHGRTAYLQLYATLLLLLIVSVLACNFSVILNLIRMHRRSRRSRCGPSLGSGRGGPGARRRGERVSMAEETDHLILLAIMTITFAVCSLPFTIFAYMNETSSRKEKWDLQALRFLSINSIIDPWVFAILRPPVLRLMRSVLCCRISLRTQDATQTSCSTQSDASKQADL

Ca2+ Signal-EC50(nM) IP (hIP)	Ki (EP2) [nM]	Ki (EP4 receptors) [nM]	SMILES
notactive	89		CCCCCC(O)c1ccc([C@@H]2[C@@H](CCCc3ccc(C(=O)O)s3)CCC2(Cl)Cl)cc1 (some centres unmarked) [compound 3]
notactive	43		CCCCCC(O)c1ccc([C@H]2C(=O)CC[C@@H]2CCCc2ccc(C(=O)O)s2)cc1 (some centres unmarked) [compound 1]
notactive	173	1940	CCCCCC(O)c1ccc([C@H]2C(=O)C=C[C@@H]2CCCc2ccc(C(=O)O)s2)cc1 (some centres unmarked) [compound 11]
notactive	401	1030	CCCCCC(O)c1ccc([C@@H]2[C@@H](C/C=C\CCCC(=O)O)CC[C@H]2Cl)cc1 (some centres unmarked) [compound 6]
notactive	70		CCCCCC(O)c1ccc([C@H]2C(=O)CC[C@@H]2CCCc2ccc(C(=O)O)s2)cc1 (some centres unmarked) [compound 2]
notactive	2310		CCCCCC(O)c1ccc([C@@H]2[C@@H](C/C=C\CCCC(=O)O)CC[C@H]2O)cc1 (some centres unmarked) [compound 7]
notactive	1050	4210	CCCCCC(O)c1ccc([C@H]2C(=O)CC[C@@H]2C/C=C\CCCC(=O)O)cc1 (some centres unmarked) [compound 5]
